Test system: Pseudomonas aeruginosa azurin position 112
Assay: Selenocysteine incorporation into azurin C112X by intact mass spectrometry
Design: species or system E. coli RTΔA.2
Conditions: peak areas of the mass spectrum
Protocol: RTΔA.2 transformants containing pAz-C112X-AU and pRSF-eSelAK were cultured as described previously with the exception that 20 μM Na2SeO3 was added for the 24 hour incubation. Cells were harvested by centrifugation and the periplasmic fraction isolated. Briefly, cell pellets were resuspended in 50 mL of 100 mM Tris and 0.75 M sucrose at pH 7.5. Following addition of lysozyme to 1 mg·mL^−1 and protease inhibitor cocktail cells were gently agitated for 20 min at 4° C. 50 mL of 1 mM EDTA was added and samples incubated again for 20 minutes. EDTA was neutralized by addition of 3.5 mL 0.5M MgCl2 during a further 20 min incubation. Spheroblasts were removed by centrifugation at 35000×g for 30 min, the periplasmic fraction passed through a 0.2 µm filter and mixed with imidazole stock solution to a final concentration of 20 mM. Seleno-azurin was recovered by IMAC using Ni-NTA resin and gravity flow columns. Eluate was concentrated and dialyzed against 50 mM NH4Ac pH 6.5 prior to the isolation of seleno-azurin by size exclusion FPLC. […]
Intact protein samples were analyzed using methods described previously (Ellefson et al., 2014). […] UVPD mass spectra were also deconvoluted using Xtract and then analyzed using ProsightPC 3.0. […] Incorporation efficiencies were calculated by dividing the area of the modified protein peak by the summed areas of the unmodified protein peak and the modified protein peak. […]

In the case of “tRNA^SecUx: Evolved E. coli tRNA^Sec variant with the G7-C66:U49-G65:C50-U64 antideterminant sequence and CUA anticodon”, the “selenocysteine incorporation efficiency in azurin” value is reported as “greater than 76%”.
